Experimental data from patent publication US8815535B2, “Disk diffusion assay for oritavancin” (The Medicines Company, priority 2011, dated 2014).
In brackets after ≈: the same amount, converted by molar mass. Where two headings read alike, the source gives them in different places.

Assays:
MSSA ATCC 29213 = test: Disk diffusion assay (zone of inhibition); format: cell-based; conditions: Staphylococcus aureus; for zone of inhibition at 360 µg/disc: 360 μg in 5% P80, read-out: Zone diameter (mm ± SD); for zone of inhibition at 180 µg/disc: MSSA ATCC 29213, 180 μg oritavancin in 2.5% P80, read-out: Zone diameter
From the text: (§1) The study was designed to identify conditions that improve oritavancin diffusion in agar and consequently yield a zone diameter ≧15 mm for the CLSI quality control strain MSSA ATCC 25923. Excipients that increased the disk diffusion of oritavancin in agar relative to disks containing only oritavancin were identified and selected for further study. […] A prediffusion step at room temperature was introduced to maximize oritavancin diffusion prior to initiation of bacterial growth. In this step, the antimicrobial disks were placed on agar plates seeded with a bacterial isolate and incubated at room temperature for 3 hours. Plates were then incubated overnight at 37° C. Zone diameters around the disks in which bacterial growth was inhibited were measured with a ruler and reported in millimeters.
(§2) Ethanol-sterilized Whatman paper disks (6 mm diameter) were allowed to dry then impregnated with 20 microliters of oritavancin solution containing total amounts ranging from 90 to 360 micrograms. Disks were allowed to dry at room temperature for various times prior to use.
(§3) Bacterial suspensions were prepared and adjusted to an optical density of 0.1 at 600 nm. Standard cation-adjusted Mueller Hinton agar plates (90 mm diameter) were seeded with bacterial suspensions by initially swabbing the center of plate then moving outward towards the edge. The plate was swabbed a second time, perpendicular to the orientation of the first swab. To assess the impact of prediffusion on diameter of inhibition zones, two disks were immediately placed on one half of the plate and the plate was incubated for 3 hours at room temperature. After 3 hours, two additional disks were placed on the other half of the plate then the plate was incubated overnight at 37° C. Zone diameters were measured with a ruler and reported in millimeters.
(§4) Oritavancin powder was dissolved in freshly-prepared solutions of the indicated excipients at concentrations of 0.625, 1.25, 2.5, 5, and 10 mg/ml (adjusted for potency based on lot 875561L00 purity of 83.1%) by vortexing for a minimum of 5 minutes. Oritavancin solutions in the various excipients, while not visually clear, were free from any apparent particulates as assessed visually. Sterile Oxoid blank disks were impregnated with 20 μl of these oritavancin solutions, resulting in oritavancin disk loads ranging from 12.5 to 200 μg. Unless indicated otherwise, disks were allowed to dry overnight at room temperature prior to use.
(§5) Bacterial suspensions from isolated colonies on overnight cation-adjusted Mueller Hinton agar plates were prepared in sterile saline and adjusted to an optical density of 0.1 at 600 nm Standard cation-adjusted Mueller Hinton agar plates (90 mm diameter) were seeded with bacterial suspensions by initially swabbing the center of plate then moving outward. Swabbing was continued at a right angle and then at an oblique angle to the first and second swabs. Disks were placed upon the seeded plates with sterile forceps. Plates were then incubated overnight at 37° C. and inhibition zone diameters were measured with a ruler and reported in millimeters.

MRSA ATCC 33591 = test: Disk diffusion assay (zone of inhibition); format: cell-based; conditions: Staphylococcus aureus, 25 μg (1.25 mg/ml) in 4% P80/Span 80 (1:1), dried overnight, read-out: Inhibition zone diameter
Description: as §4, §5

MRSA T998528 = test: Disk diffusion assay (zone of inhibition); format: cell-based; conditions: Staphylococcus aureus, 20 μl of 1.25 mg/ml in 4% P80/Span 80 (1:1), calcium alginate swabs, dried overnight, duplicate, read-out: Inhibition zone diameter
Description: as §4, §5

MRSA T998608 = test: Disk diffusion assay (zone of inhibition); format: cell-based; conditions: Staphylococcus aureus, 20 μl of 1.25 mg/ml in 4% P80/Span 80 (1:1), calcium alginate swabs, dried overnight, duplicate, read-out: Inhibition zone diameter
Description: as §4, §5

MRSA U784439 = test: Disk diffusion assay (zone of inhibition); format: cell-based; conditions: Staphylococcus aureus, 20 μl of 1.25 mg/ml in 4% P80/Span 80 (1:1), calcium alginate swabs, dried overnight, duplicate, read-out: Inhibition zone diameter
Description: as §4, §5

MRSA V288615 = test: Disk diffusion assay (zone of inhibition); format: cell-based; conditions: Staphylococcus aureus, 20 μl of 1.25 mg/ml in 4% P80/Span 80 (1:1), calcium alginate swabs, dried overnight, duplicate, read-out: Inhibition zone diameter
Description: as §4, §5

MRSA V406957 = test: Disk diffusion assay (zone of inhibition); format: cell-based; conditions: Staphylococcus aureus, 20 μl of 1.25 mg/ml in 4% P80/Span 80 (1:1), calcium alginate swabs, dried overnight, duplicate, read-out: Inhibition zone diameter
Description: as §4, §5

MSSA Q141066 = test: Disk diffusion assay (zone of inhibition); format: cell-based; conditions: Staphylococcus aureus, 20 μl of 1.25 mg/ml in 4% P80/Span 80 (1:1), calcium alginate swabs, dried overnight, duplicate, read-out: Inhibition zone diameter
Description: as §4, §5

MSSA T759545 [1] = test: Disk diffusion assay (zone of inhibition); format: cell-based; conditions: Staphylococcus aureus, 20 μl of 1.25 mg/ml in 4% P80/Span 80 (1:1), calcium alginate swabs, dried overnight, duplicate, read-out: Inhibition zone diameter
Description: as §4, §5

MSSA U148267 = test: Disk diffusion assay (zone of inhibition); format: cell-based; conditions: Staphylococcus aureus, 20 μl of 1.25 mg/ml in 4% P80/Span 80 (1:1), calcium alginate swabs, dried overnight, duplicate, read-out: Inhibition zone diameter
Description: as §4, §5

MSSA V406985 = test: Disk diffusion assay (zone of inhibition); format: cell-based; conditions: Staphylococcus aureus, 20 μl of 1.25 mg/ml in 4% P80/Span 80 (1:1), calcium alginate swabs, dried overnight, duplicate, read-out: Inhibition zone diameter
Description: as §4, §5

MRSA Q670607 = test: Disk diffusion assay (zone of inhibition); format: cell-based, Staphylococcus aureus; conditions: 20 μl of 1.25 mg/ml in 4% P80/Span 80 (1:1), calcium alginate swabs, dried overnight, duplicate
Description: as §4, §5

MRSA V257345 = test: Disk diffusion assay (zone of inhibition); format: cell-based, Staphylococcus aureus; conditions: 20 μl of 1.25 mg/ml in 4% P80/Span 80 (1:1), calcium alginate swabs, dried overnight, duplicate
Description: as §4, §5

MSSA U933236 = test: Disk diffusion assay (zone of inhibition); format: cell-based, Staphylococcus aureus; conditions: 20 μl of 1.25 mg/ml in 4% P80/Span 80 (1:1), calcium alginate swabs, dried overnight, duplicate
Description: as §4, §5

MRSA NRS123 = test: Broth microdilution (BMD) MIC; format: cell-based; conditions: Staphylococcus aureus, read-out: Oritavancin BMD MIC
From the text: (§6) To date, only the broth microdilution (BMD) minimal inhibitory concentration (MIC) test is a reference method accepted by the Clinical Laboratory Standards Institute (CLSI) for use in determining the susceptibility of a bacterial isolate to oritavancin (Methods for Dilution Antimicrobial Susceptibility Tests for Bacteria That Grow Aerobically; Approved Standard, CLSI document M7-A8, 8th ed. Clinical and Laboratory Standards Institute, Wayne, Pa. 2009; Performance Standards for Antimicrobial Susceptibility Testing; Eighteenth Informational Supplement, CLSI document M100-S18, 7th ed. Clinical and Laboratory Standards Institute, Wayne, Pa. 2008).

MRSA U206056 = test: Broth microdilution (BMD) MIC; format: cell-based; conditions: Staphylococcus aureus, read-out: Oritavancin BMD MIC
From the text: as §6

MSSA T759545 [2] = test: Broth microdilution (BMD) MIC; format: cell-based; conditions: Staphylococcus aureus, read-out: Oritavancin BMD MIC
From the text: as §6

MSSA T972018 = test: Broth microdilution (BMD) MIC; format: cell-based; conditions: Staphylococcus aureus, read-out: Oritavancin BMD MIC
From the text: as §6

NRS123 and NRS2 = test: Disk diffusion assay, difference in zone diameter between two isolates; format: cell-based, Staphylococcus aureus
From the text: as §1, §2, §3

[3] = Staphylococcus aureus, MRSA, read-out: Inhibition zone diameter

`CN[C@H](CC(C)C)C(=O)N[C@H]1C(=O)N[C@@H](CC(N)=O)C(=O)N[C@H]2C(=O)N[C@H]3C(=O)N[C@H](C(=O)N[C@H](C(=O)O)c4cc(O)cc(O)c4-c4cc3ccc4O)[C@H](O[C@H]3C[C@](C)(N)[C@@H](O)[C@H](C)O3)c3ccc(c(Cl)c3)Oc3cc2cc(c3O[C@@H]2O[C@H](CO)[C@@H](O)[C@H](O)[C@H]2O[C@H]2C[C@](C)(NCc3ccc(-c4ccc(Cl)cc4)cc3)[C@@H](O)[C@H](C)O2)Oc2ccc(cc2Cl)[C@H]1O` [oritavancin, N-(4-(4-chlorophenyl)benzyl)A82846B] gave a zone of inhibition at 360 µg/disc (MSSA ATCC 29213; 336 h, ATCC 29213, Experiment 1, disks stored 14 days, no prediffusion) of 15.8 ± 0.4 mm, a zone of inhibition at 25 µg/disc (MSSA ATCC 29213; ATCC 29213, 25 μg (1.25 mg/ml) in 4% P80/Span 80 (1:1), dried overnight, read-out: Inhibition zone diameter) of 24 mm and a zone of inhibition at 360 µg/disc (MSSA ATCC 29213; ATCC 29213, Average, no prediffusion) of 15.8 ± 0.4 mm. For the same compound, the zone of inhibition at 360 µg/disc (MSSA ATCC 29213; ATCC 29213, Average, prediffusion) was 18.3 ± 0.4 mm, the zone of inhibition at 360 µg/disc (MSSA ATCC 29213; ATCC 29213, Experiment 1, disks stored 14 days, 3 h prediffusion at room temperature) was 18.3 ± 0.4 mm and the zone of inhibition at 180 µg/disc (MSSA ATCC 29213; 0% P80 in CAMHA, no prediffusion) was 15.3 mm. For the same compound, the zone of inhibition at 180 µg/disc (MSSA ATCC 29213; 0% P80 in CAMHA, prediffusion) was 18.3 mm, the zone of inhibition at 180 µg/disc (MSSA ATCC 29213; 1% P80 in CAMHA, no prediffusion) was 15.3 mm and the zone of inhibition at 180 µg/disc (MSSA ATCC 29213; 1% P80 in CAMHA, prediffusion) was 18 mm. It also gave a zone of inhibition at 25 µg/disc (MRSA ATCC 33591) of 22 mm, a zone of inhibition at 1250 µg/mL (MRSA T998528) of 21 mm and a zone of inhibition at 1250 µg/mL (MRSA T998608) of 22 mm. The zone of inhibition at 1250 µg/mL (MRSA U784439) was 20 mm, the zone of inhibition at 1250 µg/mL (MRSA V288615) was 23 mm and the zone of inhibition at 1250 µg/mL (MRSA V406957) was 21 mm. For the same compound, the zone of inhibition at 1250 µg/mL (MSSA Q141066) was 20 mm, the zone of inhibition at 1250 µg/mL (MSSA T759545 [1]) was 22 mm and the zone of inhibition at 1250 µg/mL (MSSA U148267) was 21 mm. The zone of inhibition at 1250 µg/mL (MSSA V406985) was 24 mm, the Inhibition zone diameter (MRSA Q670607) was 22 mm and the zone of inhibition at 1250 µg/mL (MRSA Q670607; [3]) was 21 mm. For the same compound, the Inhibition zone diameter (MRSA V257345) was 22 mm, the zone of inhibition at 1250 µg/mL (MRSA V257345; [3]) was 21 mm and the Inhibition zone diameter (MSSA U933236) was 22 mm. The zone of inhibition at 1250 µg/mL (MSSA U933236; Staphylococcus aureus, MSSA, read-out: Inhibition zone diameter) was 21 mm, the MIC (MRSA NRS123) was 0.03 µg/mL (≈ 0.0167 µM) and the MIC (MRSA U206056) was 0.25 µg/mL (≈ 0.139 µM). The MIC (MSSA T759545 [2]) was 0.015 µg/mL (≈ 0.00837 µM), the MIC (MSSA T972018) was 0.5 µg/mL (≈ 0.279 µM) and the “Difference in diameter (NRS2 subtracted from NRS123)” value (shortened to “Difference in diameter”) (NRS123 and NRS2; 90 μg oritavancin, 2.5% P80) was 1.8 mm. For the same compound, the “Difference in diameter” value (NRS123 and NRS2; 90 μg oritavancin, 5% P80) was 1 mm, the “Difference in diameter” value (NRS123 and NRS2; 90 μg oritavancin, 10% P80) was −0.3 mm and the “Difference in diameter” value (NRS123 and NRS2; 180 μg oritavancin, 2.5% P80) was 1.7 mm. The “Difference in diameter” value (NRS123 and NRS2; 180 μg oritavancin, 5% P80) was 1.3 mm, the “Difference in diameter” value (NRS123 and NRS2; 180 μg oritavancin, 10% P80) was 1.3 mm and the “Difference in diameter” value (NRS123 and NRS2; 360 μg oritavancin, 2.5% P80) was 1.8 mm. For the same compound, the “Difference in diameter” value (NRS123 and NRS2; 360 μg oritavancin, 5% P80) was 0.5 mm and the “Difference in diameter” value (NRS123 and NRS2; 360 μg oritavancin, 10% P80) was 1 mm.
